According to article PMC3027097 (Journal of Translational Medicine, 2011):

Legend:
[1] = system: bovine aortic endothelial cells (EC); experiment: hFN-induced cell proliferation assay (cell number), EC; format: cell-based
Description: (§1) In vitro studies were performed on cell cultures of ECs or VSMCs, cultured in Dulbecco's modified Eagle's medium (DMEM; Sigma-Aldrich, Milan, Italy) as previously described and validated. Cell culture plates were filled with 10 μg/cm^2 of human fibronectin (hFN, Millipore®, Bedford, MA, USA) as described. All experiments were performed in triplicate with cells between passages 5 and 9.
(§2) Cell cultures were prepared as previously described. Briefly, cells were seeded at density of 100000 per well in six-well plates, serum starved, pre-incubated at 37°C for 30' with c(RGDf[NMe]V) or RGDechiHCit (10^-6 M). Proliferation was induced using hFN (100 μg/ml). Cell number was measured at 3, 6 and 20 h after stimulation as previously described.

[2] = system: vascular smooth muscle cells (VSMC); experiment: hFN-induced cell proliferation assay (cell number), VSMC; format: cell-based
Description: as §1, §2

[3] = system: ERK2 phosphorylation in EC; experiment: hFN-induced ERK2 phosphorylation, western blot, EC; format: cell-based; conditions: densitometry
Description: as §1
(§3) Immunoblot analyses were performed as previously described and validated. Mouse monoclonal antibodies to extracellular signal regulated kinase (ERK2) and phospho-ERK, anti-rabbit VEGF and actin were from Santa Cruz Biotecnology (Santa Cruz, CA, USA). Levels of VEGF were determined using an antibody raised against VEGF-165 (Santa Cruz Biotechnology). Experiments were performed in triplicate to ensure reproducibility. Data are presented as arbitrary densitometry units (ADU) after normalization for the total corresponding protein or actin as internal control.

[4] = system: ERK2 phosphorylation in VSMC; experiment: hFN-induced ERK2 phosphorylation, western blot, VSMC; format: cell-based; conditions: densitometry
Description: as §1, §3

[5] = system: VEGF production in bovine aortic endothelial cells (ECs); experiment: VEGF quantification by western blot, EC; format: cell-based; conditions: 6 hours of stimulation with hFN, peptides 10^-6 M, mean ± SEM
Description: VEGF production was measured as previously described [26]. Briefly, ECs were seeded at a density of 600000 per well in six well plates, serum starved overnight, seeded with c(RGDf[NMe]V) or RGDechiHCit (10^-6 M) and then stimulated with hFN for 6 hours.
Immunoblot analyses were performed as previously described and validated [23, 28]. […] Levels of VEGF were determined using an antibody raised against VEGF-165 (Santa Cruz Biotechnology) [26]. Experiments were performed in triplicate to ensure reproducibility. Data are presented as arbitrary densitometry units (ADU) after normalization for the total corresponding protein or actin as internal control [24].

[6] = system: bovine aortic endothelial cells (ECs); experiment: Endothelial Matrigel assay (tube formation); format: cell-based; conditions: hFN 100 μg/ml, peptides 10^-6 M, 37°C, mean ± SEM
Description: The formation of network-like structures by ECs on an extracellular matrix (ECM)-like 3D gel consisting of Matrigel® (BD Biosciences, Bedford, MA, USA), was performed as previously described and validated [27, 28]. The six-well multidishes were coated with growth factor-reduced Matrigel in according to the manufacturer's instructions. ECs (5×10^4) were seeded with c(RGDf[NMe]V) or RGDechiHCit (10^-6 M), in the absence (negative control) or presence (100 μg/ml) of hFN [24]. Cells were incubated at 37°C for 24h in 1 ml of DMEM. […] Network formation was observed using an inverted phase-contrast microscope (Zeiss). Representative fields were taken, and the average of the total number of complete tubes formed by cells was counted in 15 random fields by two independent investigators.

[7] = system: WKY rats; experiment: Wound healing assay, full-thickness skin wound; format: in vivo, rat
Description: (§4) Wound healing assay was performed on 14-week-old (weight 293 ± 21 g) normotensive WKY male rats (Charles River Laboratories, Calco (LC), Italy; n = 18), and Matrigel plugs experiments were carried out on 16-week-old (weight 33 ± 4 g) c57BL/6 mice (Charles River Laboratories, Milan, Italy; n = 13). All animal procedures were performed in accordance with the Guide for the Care and Use of Laboratory Animals published by the National Institutes of Health in the United States (NIH Publication No. 85- 23, revised 1996) and approved by the Ethics Committee for the Use of Animals in Research of "Federico II" University.
The rats (n = 18) were anesthetized using vaporized isoflurane (4%, Abbott) and maintained by mask ventilation (isoflurane 1.8%)[29]. The dorsum was shaved by applying a depilatory creme (Veet, Reckitt-Benckiser, Milano, Italy) and disinfected with povidone iodine scrub. […] Two operators blinded to the identity of the sample examined and measured wound areas every day, for 8 days. Direct measurements of wound region were determined by digital planimetry (pixel area), and subsequent analysis was performed using a computer-assisted image analyzer (ImageJ software, version 1.41, National Institutes of Health, Bethesda, MD, USA). Wound healing was quantified as a percentage of the original injury size. […]

[8] = system: c57BL/6 mice; experiment: Matrigel plugs, EC infiltration by lectin staining; format: in vivo, mouse; conditions: s.c. Matrigel with VEGF and 10^-5M peptide, seven days, mean ± SEM
Description: as §4
Mice (n = 13), anesthetized as described above, were subcutaneously injected midway on the dorsal side, using sterile conditions, with 0.2 ml of Matrigel® basement matrix, pre-mixed with 10^-6M VEGF and 10^-5M c(RGDf[NMe]V) (n = 4), 10^-6M VEGF and 10^-5M RGDechiHCit (n = 5), or 10^-6M VEGF alone (n = 4). After seven days, mice were euthanized and the implanted plugs were harvested from underneath the skin, fixed in 10% neutral-buffered formalin solution and then embedded in paraffin. Invading ECs were identified and quantified by analysis of lectin immunostained sections, as described.
All tissues were cut in 5 μm sections and slides were counterstained with a standard mixture of hematoxylin and eosin. […]

[9] = human serum (Lonza, Basel, Switzerland); conditions: 37°C, up to 24h

Compound	EC proliferation ([1]; hFN 100 μg/ml stimulation, peptides 10^-6 M pre-incubated 30' at 37°C, after 6 hours, mean ± SEM)	EC proliferation, peptide given alone ([1]; without hFN)	VSMC proliferation ([2]; hFN 100 μg/ml stimulation, peptides 10^-6 M, mean ± SEM, NS)	VSMC proliferative response to hFN at 20h ([2]; hFN stimulation, 20h)	hFN-induced phosphorylation of ERK2 in EC [3]	hFN-induced phosphorylation of ERK2 in VSMC [4]	VEGF expression levels in EC [5]	tube formation on Matrigel [6] [branches per 10000 μm^2]	wound healing (closure of full-thickness wounds) ([7]; pluronic gel 30% containing 10^-6 M peptide placed daily on 20 mm wound, 8 days)	wound histology ([7]; wounds excised 8 days after surgery)	EC infiltration of Matrigel plugs [8] [fold over VEGF alone]	not cleaved [9]
CC(C)[C@H]1C(=O)N[C@@H](CCCNC(=N)N)C(=O)NCC(=O)N[C@@H](CC(=O)O)C(=O)N[C@H](Cc2ccccc2)C(=O)N1C [c(RGDf[NMe]V)]	+0.6 ± 0.38 fold over basal	did not affect EC proliferation	+0.9 ± 0.09 fold over basal	induced an attenuation of such proliferative response	significantly inhibited	decreased such activation	+3.19 ± 0.73 fold over basal, ADU	14.11 ± 3.9	slowed down healing	exhibited a retarded repair pattern	0.185 ± 0.027	
c(RGDf[NMe]V)												After 24h of incubation chromatogram and mass profiles failed to identify any degradation product
